# According to US20230107216A1, “PANTETHEINE DERIVATIVES AND USES THEREOF” (Comet Therapeutics, Inc., priority 2018, published 2023):
# Like-named read-outs stand apart in the source and are kept apart here.
# Legend:
# [1] = test system: Methylmalonic Acidemia (MMA) primary fibroblasts Tsi 5224; assay: Mitochondrial respiration, XFe96 Extracellular Flux Analyzer (OCR/ECAR), MMA fibroblasts Tsi 5224; assay type: cell-based; details: Homo sapiens, Fibroblast;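 on Increase in Maximal Respiratory Capacity AUC: relative to vehicle DMSO control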
# Procedure: The effect of the compounds of the present disclosure on mitochondrial respiration was measured with a XFe96 Extracellular Flux Analyzer (Seahorse Bioscience, Agilent Technologies) and Oxygen consumption Rate (OCR) and Extracellular acidification rate (ECAR) determined.
# Cell culture and treatments. Primary adherent fibroblasts were cultured in minimum essential medium (MEM) (Gibco, 25030081) supplemented with 2 mM L-Glutamine (Gibco, 25030081), 15% fetal bovine serum (FBS) (Gibco, 26400044) and 1% penicillin/streptomycin (Gibco, 5140122) at 37° C. and 5% CO2. Cells were collected for either passaging or experiment at ˜70-80% confluence. Cells were obtained by trypsinization and seeded at 20000 cells/well in cell culture microplates (Seahorse Bioscience, 101085-004) and allowed to adhere for 16 hours in culture media.
# By profiling different primary cells and/or optimizing their culture media or environmental components one can select cell lines and/or conditions that are appropriate for the biological or disease model. In the present example, 24 hours prior to OCR and ECAR profiling, media was changed to Dulbecco's Modified Eagle Medium (DMEM, Agilent Seahorse 103575-100) with the appropriate supplements for the different primary cells (10 mM glucose, 2 mM L-glutamine, 1 mM pyruvate, 10% FBS; 1 mM glucose, 2 mM L-glutamine, 1 mM pyruvate, 10% FBS; 10 mM glucose, 10% FBS; 5 mM glucose 10% FBS; 1 mM glucose 10% FBS). Cells used in this example were: Propionic Acidemia (PA) (GM00371, GM03590 Coriell Institute for Medical Research, Tsi 6337, Tsi 4626, Tsi 3618 Trans-Hit Bio), Methylmalonic Acidemia (MMA) (GM01673, Coriell Institute for Medical Research, Tsi 5224 Trans-Hit Bio), Branched chain ketoacid dehydrogenase kinase (BCKDK) (GM00612, GM00649 Coriell Institute for Medical Research), Subnormal activation of pyruvate dehydrogenase complex (PDH) (GM01503 Coriell Institute for Medical Research), Very long-chain acyl-CoA dehydrogenase (VLCAD) (GM17475), Leigh Syndrome (LS) (GM03672, GM13411 Coriell Institute for Medical Research), Pyruvate Carboxylase Deficiency (PC) (GM00444 Coriell Institute for Medical Research), Glutaric Acidemia-I (GA) (GM10653), Friedreich's Ataxia (FXN) (GM04078 Coriell Institute for Medical Research, Huntington's disease (HD) (GM21756 Coriell Institute for Medical Research), Ornithine Transcarbamylase Deficiency (OTC) (GM12756 Coriell Institute for Medical Research), Kearns-Sayre Syndrome (KSS) (GM06225 Coriell Institute for Medical Research).
# One hour before the assay, the cells were washed with freshly prepared unbuffered serum free-Seahorse XF Assay medium (Seahorse Bioscience, North America, USA, 103575-100) with the same supplements as for the previous 24 hour incubation.
# After baseline measurements of OCR, cells were challenged with compounds of the present disclosure at different concentrations (10 to 50 μM) or vehicle (DMSO, 0.1%) and a post-compound baseline was recorded. OCR was measured after sequentially adding to each well 1 μg/ml oligomycin (inhibitor of ATP synthase Sigma-Aldrich, 753531), then maximal OCR was determined with carbonyl cyanide 4-(trifluoromethoxy) phenylhydrazone (FCCP, Sigma-Aldrich, C2920), (uncoupler of oxidative phosphorylation) and 0.5 μM of rotenone (Sigma-Aldrich, R8875) plus antimycin A (Sigma-Aldrich, A8674) (inhibitors of mitochondrial complex I and III) for determination of rotenone-antimycin insensitive respiration together with Hoechst for nuclear staining in situ when normalized to cell counts. After the analysis and nuclear staining, the XFp microplate was transferred to the Cytation 5, and the nuclear images were captured, the individual nuclei were identified and counted by BioTek Gen5 software. Data were expressed as pmol of O2 per minute and normalized by nuclear staining and baselined to pre-compound addition.
# Assay conditions were as stated below.
# Assay specifics on assay conditions are indicated below when readouts were normalized to cell counts. […]
# [2] = test system: primary fibroblasts (healthy controls and PA, MMA, BCKDK, PDH, VLCAD, LS, PC, GA, VLCFA, KSS, FXN, HD); assay: Measurement of ROS (H2DCFDA) in primary fibroblasts; assay type: cell-based, human; details: Homo sapiens, procedure Example 812, Assay Condition C
# Procedure: Primary adherent fibroblasts were cultured in minimum essential medium (MEM) (Gibco, 25030081) supplemented with 2 mM L-Glutamine (Gibco, 25030081), 15% fetal bovine serum (FBS) (Gibco, 26400044) and 1% penicillin/streptomycin (Gibco, 5140122) at 37° C. and 5% CO2. Cells were collected for either passaging or experiment at ˜70-80% confluence. Cells were obtained by trypsinization and seeded in cell culture microplates either white plate (Thermo Fisher Scientific, 152028) for luminescent measurement or black plate (Thermo Fisher Scientific, 165305) for fluorescent based read out for different assays listed below. Cells were obtained by trypsinization and […] were seeded and allowed to adhere for 16-18 hours to have confluency around 70-80% in the cell well with culture media. After 24 hours prior to measurements (37° C., 5% CO2) media was changed to Dulbecco's Modified Eagle Medium (DMEM, Agilent Seahorse cat #103575-100) with the appropriate supplements as stated below.
# Primary fibroblasts assayed were Healthy controls (GM00041, GM05659, GM23974 Coriell Institute for Medical Research), Propionic Acidemia (PA) (GM00371, GM03590 Coriell Institute for Medical Research, Tsi 6337 Trans-Hit Bio), Methylmalonic Acidemia (MMA) (GM01673, Coriell Institute for Medical Research, Tsi 5224, Tsi 4290 Trans-Hit Bio), Branched chain ketoacid dehydrogenase kinase (BCKDK) (GM00612, GM00649 Coriell Institute for Medical Research), Subnormal activation of pyruvate dehydrogenase complex (PDH) (GM01503 Coriell Institute for Medical Research), Very long-chain acyl-CoA dehydrogenase (VLCAD) (GM17475), Leigh Syndrome (LS) (GM03672, GM13411 Coriell Institute for Medical Research), Pyruvate Carboxylase Deficiency (PC) (GM00444 Coriell Institute for Medical Research), Glutaric Acidemia-I (GA), Impaired VLCFA oxidation (VLCFA) (GM13262), Kearns-Sayre Syndrome (KSS) (GM06225 Coriell Institute for Medical Research), Friedreich's Ataxia (FXN), Huntington's disease (HD) (GM21756 Coriell Institute for Medical Research). Next, cells were treated with compounds (10 μM) and ROS H2DCFDA (22 μM) dye for 2 hours in PA, MMA lines and for 24h for the other fibroblast lines. Kinetic read was started immediately with a i3x plate reader (492/527 nm) for 60 minutes.
# A total dead cell count was performed as described in Example 817 and only alive cells were used for analysis.
# [3] = test system: Propionic Acidemia (PA) primary fibroblasts GM00371; assay: Mitochondrial respiration, XFe96 Extracellular Flux Analyzer (OCR/ECAR), PA fibroblasts GM00371; assay type: cell-based; details: Homo sapiens, Fibroblast, assay condition C (10 mM glucose, 10% FBS), 50 μM, read-out: Increase in Maximal Respiratory Capacity AUC
# [4] = test system: monocyte-derived M1 macrophages; assay: M1 differentiation assay (macrophage TNFα, IL6, IL10 ELISA, FACS); assay type: cell-based, human
# Procedure: Monocytes were isolated by positive isolation with CD14+ microbeads (Miltenyi, 130-050-201). Monocytes were 99% viable and were 96% purity as analyzed by FACS and CD14+ (BD, 563561). 100,000 monocytes along with compounds at the dose of 10 and 50 μM were allowed to differentiate to macrophages with 10 ng/ml GMCSF (R&D, 15-GM-050/CF) in RPMI complete media (Invitrogen, 22400089) with 15% FBS (Hyclone SV30087.03) and 1% Penicillin-Streptomycin (Gibco, 15140-122). On day 2 and 4 half the media was refreshed with fresh GM-CSF and compounds at 10 and 50 μM dose. On day 6 the macrophages were matured with GMCSF, IFNγ (R&D 285-IF-100/CF) and LPS (Sigma, L6143) in the presence of 10 μM and 50 μM of compounds. After 24h, supernatant was collected for the measurement of TNFα (DKW, 1117202) IL6 (DKW, 1110602), IL10 (DKW, 1110003) by ELISA. Macrophages were detached gently on ice with EDTA (Invitrogen, 15575-038) and analyzed by FACS (BD LSR Fortessa, 853492). Cells were stained for live/dead dye, surface and intracellular markers with fixation/permeabilization solution (BD, 554714) and ALIVE/DEAD™ Fixable Near-IR Dead Cell Stain Kit (BD, L34976), mouse anti human CD86 APC (BD, 555660), mouse anti-human CD163 PE (BD, 556018), mouse anti-human CD68 FITC (BD, 562117) or isotype controls anti-mouse IgG1 κ PE (BD, 559320) and anti-mouse IgG1 κ APC (BD, Anti mouse IgG1 κ APC (BD, 55571). Mature M1 macrophages were defined as CD86+CD68+CD163− and increase in TNFα, IL6, and decrease in IL-10.
# [5] = MMA Tsi 5224, assay condition A (10 mM glucose, 2 mM L-glutamine, 1 mM pyruvate, 10% FBS), read-out: Increase in Maximal Respiratory Capacity AUC
# [6] = FXN GM04078, read-out: Decreased ROS by at least 10%
# [7] = Fibroblast, PC GM00444, read-out: Decreased ROS by at least 10%
# [8] = Fibroblast, PC GM00444, read-out: Decreased ROS by at least 30%
# [9] = FXN GM04078, read-out: Decreased ROS by at least 30%
# [10] = MMA Tsi 5224, assay condition D (1 mM glucose, 10% FBS), read-out: Increase in Maximal Respiratory Capacity AUC
structure (smiles),measurement,setting,value
"COC(=O)C(=O)SCCNC(=O)CCNC(=O)[C@H](O)C(C)(C)CO [Compound 30, Methyl (R)-2-((2-(3-(2,4-dihydroxy-3,3-dimethylbutanamido)propanamido)ethyl)thio)-2-oxoacetate]",activation at 10 µM,[1]; [5],≥ 10%
CC(O)CC(=O)CC(=O)CC(=O)SCCNC(=O)CCNC(=O)[C@H](O)C(C)(C)CO (stereo partly drawn) [Compound 379],inhibition at 10 µM,[2]; [6],≥ 10%
"COC(=O)CCC(=O)CC(=O)SCCNC(=O)CCNC(=O)[C@H](O)C(C)(C)CO [Compound 5, methyl 6-[(2-[3-[(2R)-2,4-dihydroxy-3,3-dimethylbutanamido]propanamido]ethyl)sulfanyl]-4,6-dioxo-hexanoate]",activation at 50 µM,[3],≥ 10%
"COC(=O)[C@@H](N)CCC(=O)SCCNC(=O)CCNC(=O)[C@H](O)C(C)(C)CO [Compound 412, methyl (2S)-2-amino-5-[(2-[3-[(2R)-2,4-dihydroxy-3,3-dimethylbutanamido]propanamido]ethyl)sulfanyl]-5-oxopentanoate]",inhibition at 10 µM,[2]; [7],≥ 10%
same,inhibition at 10 µM,[2]; [8],≥ 30%
same,inhibition at 10 µM,[2]; [6],≥ 10%
same,inhibition at 10 µM,[2]; [9],≥ 30%
COC(=O)[C@@H](N)CC(=O)SCCNC(=O)CCNC(=O)[C@H](O)C(C)(C)CO [Compound 415],% decrease in Live Macrophage Cells,[4]; 50 uM,≥20%
same,activation at 10 µM,"[4]; Homo sapiens, Macrophage, 10 uM, read-out: % Increase in IL-10 Secretion",≥ 30%
same,inhibition at 10 µM,"[4]; Homo sapiens, Macrophage, 10 uM, read-out: % decrease in Macrophage IL-6 Secretion",≥ 30%
same,inhibition at 10 µM,"[4]; Homo sapiens, Macrophage, 10 uM, read-out: % decrease in Macrophage TNFα Secretion",≥ 30%
same,activation at 10 µM,"[1]; MMA Tsi 5224, assay condition D (1 mM glucose, 10% FBS), read-out: Increase in Spare Capacity AUC",≥ 10%
"CC(=O)C(C)C(=O)SCCNC(=O)CCNC(=O)[C@H](O)C(C)(C)CO (stereo partly drawn) [Compound 396, (2R)-2,4-dihydroxy-3,3-dimethyl-N-[2-([2-[(2-methyl-3-oxobutanoyl)sulfanyl]ethyl]carbamoyl)ethyl]butanamide]",inhibition at 10 µM,[2]; [7],≥ 10%
same,inhibition at 10 µM,[2]; [8],≥ 30%
same,activation at 50 µM,[3],≥ 10%
"COC(=O)CC(SCCNC(=O)CCNC(=O)[C@H](O)C(C)(C)COP(=O)(O)O)C(=O)OC (stereo partly drawn) [Compound 86, dimethyl 2-((2-(3-((R)-2-hydroxy-3,3-dimethyl-4-(phosphonooxy)butanamido)propanamido)ethyl)thio)succinate]",% Increase in Live Macrophage Cells,[4]; 10 uM,≥20%
same,activation at 10 µM,[1]; [10],≥ 10%
CC(C)(COC(=O)CCC(=O)O)[C@@H](O)C(=O)NCCC(=O)NCCSC(=O)CCC(=O)O [Compound 1232],inhibition at 10 µM,"[2]; Fibroblast, VLCFA GM13262, read-out: Decreased ROS by at least 10%",≥ 10%
same,inhibition at 10 µM,"[2]; Fibroblast, VLCFA GM13262, read-out: Decreased ROS by at least 30%",≥ 30%
same,inhibition at 10 µM,[2]; [6],≥ 10%
same,inhibition at 10 µM,[2]; [9],≥ 30%
same,activation at 10 µM,[1]; [5],≥ 10%
same,activation at 10 µM,[1]; [10],≥ 10%
CC(C)(C)OC(=O)N[C@@H](CC(=O)SCCNC(=O)CCNC(=O)[C@H](O)C(C)(C)CO)C(=O)OC(C)(C)C [Compound 1318],activation at 10 µM,"[1]; MMA Tsi 5224, assay condition B (1 mM glucose, 2 mM L-glutamine, 1 mM pyruvate, 10% FBS), read-out: Increase in Spare Capacity AUC",≥ 10%
